Common to all, as to format: functional
Assay [1] has as its system Trogoderma granarium. As to the kind of experiment: Antifeedant activity against Trogoderma granarium (khapra beetle) in compound treated wheat wafer disks assessed as antifeedant index by no-choice/two-choice assay.
For assay [2], the system named is Tribolium confusum. Description: Antifeedant activity against Tribolium confusum (confused flour beetle) in compound treated wheat wafer discs assessed as antifeedant index by no-choice/two-choice assay.
Assay [3] concerns Sitophilus granarius. Description: Antifeedant activity against Sitophilus granarius (granary weevil) in compound treated wheat wafer disks assessed as antifeedant index by no-choice/two-choice assay.

`C=C(C)C(=O)O[C@H]1CC(=C)[C@@H]2C[C@H](O)C(=C)[C@@H]2[C@H]2OC(=O)C(=C)[C@@H]21` [AGUERIN B]: the Activity was found to be 116.5 in assay [1], 114.5 in assay [2] and 94.7 in assay [3].

For the compound `C=C(CO)C(=O)O[C@H]1CC(=C)[C@@H]2C[C@H](O)C(=C)[C@@H]2[C@H]2OC(=O)C(=C)[C@@H]21` [CYNAROPICRIN], the values for the Activity in assay [1], in assay [2] and in assay [3] were 49.5, 98.8 and 51.6, respectively.

Regarding `C=C(CO)C(=O)O[C@H]1CC(=C)[C@@H]2C[C@H](O)[C@]3(CO3)[C@@H]2[C@H]2OC(=O)C(=C)[C@@H]21` [JANERIN], the Activity in assay [1] is reported as 95; in assay [2] it was 104; in assay [3], 69.

Take `COc1cc(/C=C/CO)cc(OC)c1O[C@@H]1O[C@H](CO)[C@@H](O)[C@H](O)[C@H]1O` [SYRINGIN]: the Activity in assay [1] is listed as 61.7; in assay [2], 125.6; in assay [3] it was 134.4.

The record behind these values is ChEMBL document CHEMBL3045625, “Antifeedant properties and chemotaxonomic implications of sesquiterpene lactones and syringin from Rhaponticum pulchrum” (2006).
